The source made the active and inactive calls.
Columns and labels:
Format in all cases: functional, cell-based
HepG2 [1] = test: Upregulation of P62 in human HepG2 cells transfected with HIV-RT and gene knockdown by IL28A morpholinos at 10 uM incubated for 24 hrs by western blot analysis
HepG2 [2] = test: Induction of autophagy in human HepG2 cells transfected with ZIKV-NS5 assessed as increase in ZIKV-NS5-LAMP2 interaction level at 10 uM incubated for 24 hrs in presence of anti-Flag antibodies by co-immunoprecipitation assay
HepG2 [3] = test: Induction of autophagy in human HepG2 cells transfected with HBx assessed as increase in HBx-LC3B interaction level at 10 uM incubated for 24 hrs in presence of anti-Flag antibodies by co-immunoprecipitation assay
HepG2 [4] = test: Induction of autophagy in human HepG2 cells transfected with HCV subgenomic replicon assessed as HCV-NS5B/LAMP2 combination at 10 uM incubated for 24 hrs in presence of anti-LC3B antibodies by co-immunoprecipitation assay
HepG2 [5] = test: Upregulation of ATG10/ATG10S mRNA level in human HepG2 cells transfected with ZIKV-NS5 upto 10 uM by RT-PCR analysis; settings: DDE = dose-dependent effect
HepG2 [6] = test: Induction of autophagy in human HepG2 cells transfected with HCV subgenomic replicon and gene knockdown by IL28A morpholinos assessed as LC3B and LAMP2 interaction at 10 uM incubated for 24 hrs in presence of anti-LC3B antibodies by co-immunoprecipitation assay
HepG2 [7] = test: Upregulation of endogenous ATG10S activated co-localisation of ZIKV-NS5 with LC3B in human HepG2 cells co-transfected with ZIKV-NS5 and ATG10-sMO by cellular immunofluorescence assay
HepG2 [8] = test: Downregulation of HIV-RT in human HepG2 cells transfected with HIV-RT upto 10 uM incubated for 24 hrs by western blot analysis
HepG2 [9] = test: Upregulation of LC3B in human HepG2 cells transfected with HBx and gene knockdown by IL28A morpholinos at 10 uM incubated for 24 hrs by western blot analysis
HepG2 [10] = test: Induction of autophagy in human HepG2 cells co-transfected with ZIKV-NS5 assessed as decrease in ZIKV-NS5 protein level upto 10 uM and measured after 6 hrs by western blot analysis; settings: DDE = dose-dependent effect
HepG2 [11] = test: Upregulation of IL28A mRNA expression level in human HepG2 cells transfected with HCV sub-replicon upto 10 uM by qRT-PCR analysis; settings: DDE = dose-dependent effect
HepG2 [12] = test: Effect on LC3B-II protein degradation in human HepG2 cells at 10 uM pretreated with proteosome inhibitor MG132 for 12 hrs followed by compound addition and measured after 24 hrs by western blot analysis
HepG2 [13] = test: Upregulation of HCV-NS5B in human HepG2 cells transfected with HCV sub-replicon and gene knockdown by IL28A morpholinos at 10 uM incubated for 24 hrs by western blot analysis
HepG2 [14] = test: Effect on HBx degradation in human HepG2 cells transfected with HBx at 10 uM pretreated with proteosome inhibitor MG132 for 12 hrs followed by compound addition and measured after 24 hrs by western blot analysis
HepG2 [15] = test: Induction of autophagy in human HepG2 cells transfected with ZIKV-NS5 and gene knockdown by IL28A morpholinos assessed as LC3B and LAMP2 interaction at 10 uM incubated for 24 hrs in presence of anti-LC3B antibodies by co-immunoprecipitation assay
HepG2 [16] = test: Downregulation of ZIKV-NS5 in human HepG2 cells transfected with ZIKV-NS5 upto 10 uM incubated for 24 hrs by western blot analysis
HepG2 [17] = test: Downregulation of HIV-RT in human HepG2 cells co-transfected with HIV-RT and ATG10-misMO upto 10 uM incubated for 24 hrs by western blot analysis
HepG2 [18] = test: Upregulation of endogenous ATG10S activated co-localisation of HCV-NS5B with LC3B in human HepG2 cells co-transfected with HCV sub-replicon and ATG10-misMO by cellular immunofluorescence assay
HepG2 [19] = test: Induction of autophagy in human HepG2 cells transfected with ZIKV-NS5 assessed as increase in ZIKV-NS5-P62 interaction level at 10 uM incubated for 24 hrs in presence of anti-Flag antibodies by co-immunoprecipitation assay
HepG2 [20] = test: Induction of autophagy in human HepG2 cells transfected with HBx assessed as increase in HBx-P62 interaction level at 10 uM incubated for 24 hrs in presence of anti-Flag antibodies by co-immunoprecipitation assay
HepG2 [21] = test: Upregulation of IL28A mRNA expression level in human HepG2 cells transfected with HIV-RT upto 10 uM by qRT-PCR analysis; settings: DDE = dose-dependent effect
HepG2 [22] = test: Upregulation of IL28A mRNA expression level in human HepG2 cells transfected with ZIKV-NS5 upto 10 uM by qRT-PCR analysis; settings: DDE = dose-dependent effect
HepG2 [23] = test: Induction of autophagy in human HepG2 cells assessed as decrease in P62 expression level upto 10 uM and measured after 6 hrs by western blot analysis; settings: DDE = dose-dependent effect
HepG2 [24] = test: Upregulation of LC3B in human HepG2 cells transfected with HCV sub-replicon and gene knockdown by IL28A morpholinos at 10 uM incubated for 24 hrs by western blot analysis
HepG2 [25] = test: Upregulation of P62 in human HepG2 cells transfected with HBx and gene knockdown by IL28A morpholinos at 10 uM incubated for 24 hrs by western blot analysis
HepG2 [26] = test: Downregulation of HCV-NS5B in human HepG2 cells transfected with HCV-subreplicon upto 10 uM incubated for 24 hrs by western blot analysis
HepG2 [27] = test: Upregulation of LC3B in human HepG2 cells transfected with ZIKV-NS5 and gene knockdown by IL28A morpholinos at 10 uM incubated for 24 hrs by western blot analysis
HepG2 [28] = test: Upregulation of endogenous ATG10S activated co-localisation of ZIKV-NS5 with LAMP2 in human HepG2 cells co-transfected with ZIKV-NS5 and ATG10-sMO by cellular immunofluorescence assay
HepG2 [29] = test: Upregulation of endogenous ATG10S activated co-localisation of HBx with LC3B in human HepG2 cells co-transfected with HBx and ATG10-misMO by cellular immunofluorescence assay
HepG2 [30] = test: Induction of autophagy in human HepG2 cells transfected with HBx assessed as increase in HBx-LAMP2 interaction level at 10 uM incubated for 24 hrs in presence of anti-Flag antibodies by co-immunoprecipitation assay
HepG2 [31] = test: Upregulation of ATG10/ATG10S mRNA level in human HepG2 cells transfected with HIV-RT upto 10 uM by RT-PCR analysis; settings: DDE = dose-dependent effect
HepG2 [32] = test: Downregulation of HCV-CORE in human HepG2 cells co-transfected with HCV-subreplicon and ATG10-misMO upto 10 uM incubated for 24 hrs by western blot analysis
HepG2 [33] = test: Downregulation of HCV-NS5B in human HepG2 cells co-transfected with HCV-subreplicon and ATG10-misMO upto 10 uM incubated for 24 hrs by western blot analysis

Measured: Activity

CC[C@@H](O)c1nc(C)cc2c1C(=O)c1cc(=O)c3c(c(O)c1-2)O[C@@H]1O[C@H](C)[C@@H](OC)[C@@H](O)[C@]31O
active: HepG2 [1] | HepG2 [2] | HepG2 [3] | HepG2 [4] | HepG2 [5] Dde | HepG2 [6] | HepG2 [7] | HepG2 [8] | HepG2 [9] | HepG2 [10] Dde | HepG2 [11] Dde | HepG2 [12] | HepG2 [13] | HepG2 [14] | HepG2 [15] | HepG2 [16] | HepG2 [17] | HepG2 [18] | HepG2 [19] | HepG2 [20] | HepG2 [21] Dde | HepG2 [22] Dde | HepG2 [23] Dde | HepG2 [24] | HepG2 [25] | HepG2 [26] | HepG2 [27] | HepG2 [28] | HepG2 [29] | HepG2 [30] | HepG2 [31] Dde | HepG2 [32] | HepG2 [33]
